{"source": "paper PMC12775434", "about": "“Ultra-large virtual screening unveils potent agonists of the neuromodulatory orphan receptor GPR139” (Nature Communications, 2025)", "key": {"GPR139 (Gi2 activation)": {"target": "T1, GPR139 (Gi2 activation) (Homo sapiens, UniProt Q6DWJ6)", "T1 construct": "expressed in transfected cells; host or cells: HEK293A (transient, Lipofectamine 2000)", "T1 sequence (Q6DWJ6 1-353)": "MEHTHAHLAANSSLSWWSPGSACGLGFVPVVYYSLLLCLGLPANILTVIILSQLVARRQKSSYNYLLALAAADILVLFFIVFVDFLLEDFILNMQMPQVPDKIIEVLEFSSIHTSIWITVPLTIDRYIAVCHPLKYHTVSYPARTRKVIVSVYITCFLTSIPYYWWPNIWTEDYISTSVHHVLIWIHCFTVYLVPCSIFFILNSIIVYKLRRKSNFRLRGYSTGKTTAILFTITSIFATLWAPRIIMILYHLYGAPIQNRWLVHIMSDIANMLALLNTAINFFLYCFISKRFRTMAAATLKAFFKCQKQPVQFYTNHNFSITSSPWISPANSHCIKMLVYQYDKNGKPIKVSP", "test": "BRET G protein activation (dissociation) assay, Gi2, HEK293A", "assay_type": "cell-based", "conditions": "for G protein activation, Gi2: individual replicates", "protocol": "(§1) Primary screening and pharmacological characterization of compounds were performed using a CHO-K1 cell line that stably expresses human GPR139 (GPR139-CHOk1). The GPR139-CHOk1 cell line was kindly provided by H. Lundbeck A/S, Denmark[24]. GPR139-CHOk1 cells were grown in Ham’s F-12 Kaighn’s Modification Medium (ThermoFisher #21127030) supplemented with 10% dialyzed fetal bovine serum (US origin, ThermoFisher #26400044), 100 units/mL Penicillin-Streptomycin (ThermoFisher #15140122), and 1 mg/mL Geneticin (ThermoFisher #11811031). […] M1R-CHOk1 cells were purchased from The Missouri S&T cDNA Resource Center (#CEM100TN00). M1R-CHOk1 cells were grown in Ham’s F12 Medium (ThermoFisher #21765029) supplemented with 10% fetal bovine serum (Brazilian origin, ThermoFisher #10270106), 100 units/mL Penicillin-Streptomycin, and 0.25 mg/mL Geneticin. HEK293A cells transiently transfected with GPR139 were used for additional pharmacological assessment of signaling pathways activated by GPR139. HEK239A cells were generously provided by Dr. Asuka Inoue, Tohoku University, Japan. HEK293A cells were grown in Dulbecco’s Modified Eagle Medium (ThermoFisher #31966047) supplemented with 10% dialyzed fetal bovine serum and 100 units/mL Penicillin-Streptomycin. Cell lines were maintained at 37 °C in humidified incubator equilibrated with 5% CO2.\n(§2) The G protein dissociation assay developed by the lab of Kirill A. Martemyanov was used to measure the coupling of multiple G proteins by GPR139[57]. The assay was performed as described previously with minor modifications. HEK293A cells were reverse transfected 20–24 h prior to assay. 50,000 cells were plated in each well of white opaque tissue culture treated 96-well plates (PerkinElmer #6005680) previously coated with poly-D-lysine. Transfection solutions were prepared as described, and 10 µL transfection solution was mixed with 100 µL cells in each well. The cells in each well were transfected with 18.9 ng GPR139, 6.3 ng Venus 1-155 Gγ2, 6.3 ng Venus 159-239 Gβ1, 6.3 ng masGRK3ct-NanoLuc and 12.6 ng Gαi2, 12.6 ng Gαi3, 12.6 ng GαoA, 12.6 ng Gαq or 25.2 ng Gα12 using 375 nL Lipofectamine 2000 Transfection Reagent. Transfections with Gαq and Gα12 contained 6.3 ng DNA of the active subunit S1 of pertussis toxin (PTX-S1). Each transfection was normalized to 150 ng total DNA with pcDNA3.1. The BRET biosensors were a kind gift from the Martemyanov lab. On the day of the experiment the cells were washed with HEPES buffer. Test compounds were diluted in HEPES buffer from DMSO stocks (final DMSO concentration of maximally 0.3%). NanoLuc Luciferase substrate NanoGlo—furimazine (Promega #N1120) was diluted 1000-fold (final) in HEPES buffer. NanoGlo and test compounds were added, and measurements were performed after 10 s for Gi3, 15 s for Gi2 and GoA, 20 s for Gq, and 90 s for G12—the timepoint where maximal signal occurred with each G protein, ensuring proper determination of the potency for the G protein coupling. Simultaneous dual emission was measured at 535 nm and 475 nm on LUMIstar Omega Microplate Reader (BMG Labtech) at room temperature. The BRET ratio of 535 nm/475 nm (Venus/NanoLuc), reflecting the dissociation of the G protein heterotrimer, was used to determine the G protein activation. The basal BRET ratio obtained with buffer condition was subtracted from the absolute BRET ratio at a given test compound concentration, and the responses were normalized to the one obtained with 10 µM JNJ-63533054 for the activation of Gi2.\n(§3) Pharmacological data and statistical analyses were performed in GraphPad Prism v9–10 (Graphpad Software Inc., San Diego, CA), which are also specifically described in the figure and table legends. […]"}, "GPR139 (GoA activation)": {"target": "T2, GPR139 (GoA activation) (Homo sapiens, UniProt Q6DWJ6)", "T2 construct": "expressed in transfected cells; host or cells: HEK293A (transient, Lipofectamine 2000)", "T2 sequence (Q6DWJ6 1-353)": "T1 sequence (Q6DWJ6 1-353)", "test": "BRET G protein activation (dissociation) assay, GoA, HEK293A", "assay_type": "cell-based", "conditions": "for G protein activation, GoA: individual replicates", "protocol": "as §1, §2, §3"}, "[1]": {"conditions": "HEK293-A, normalized to JNJ-63533054 (JNJ(S))"}}, "note": "Several values for one entry are separate records, joined by “and”; a condition that tells them apart may be missing. Equal entries are not always repeated.", "data": [{"smiles": "Cc1cscc1-c1nc(CC(=O)N[C@H](C)c2ccccc2)no1", "note": "[1.1(R)]", "values": [{"measurement": "Emax", "setting": "GPR139 (Gi2 activation); [1]", "value": "88 ± 11", "unit": "%"}, {"measurement": "EC50", "setting": "GPR139 (Gi2 activation); Supplementary Table 6, read-out: pEC50 Gi2 (converted)", "value": 0.794, "unit": "µM"}, {"measurement": "G protein activation, Gi2", "setting": "GPR139 (Gi2 activation); log [compound] M -4.5", "value": "74 % of JNJ-63533054 at Gi2 and 72 % of JNJ-63533054 at Gi2 and 95 % of JNJ-63533054 at Gi2"}, {"measurement": "G protein activation, Gi2", "setting": "GPR139 (Gi2 activation); log [compound] M -5.0", "value": "74 % of JNJ-63533054 at Gi2 and 67 % of JNJ-63533054 at Gi2 and 91 % of JNJ-63533054 at Gi2"}, {"measurement": "G protein activation, Gi2", "setting": "GPR139 (Gi2 activation); log [compound] M -5.5", "value": "63 % of JNJ-63533054 at Gi2 and 47 % of JNJ-63533054 at Gi2 and 77 % of JNJ-63533054 at Gi2"}, {"measurement": "G protein activation, Gi2", "setting": "GPR139 (Gi2 activation); log [compound] M -6.0", "value": "51 % of JNJ-63533054 at Gi2 and 35 % of JNJ-63533054 at Gi2 and 64 % of JNJ-63533054 at Gi2"}, {"measurement": "G protein activation, Gi2", "setting": "GPR139 (Gi2 activation); log [compound] M -6.5", "value": "30 % of JNJ-63533054 at Gi2 and 18 % of JNJ-63533054 at Gi2 and 40 % of JNJ-63533054 at Gi2"}, {"measurement": "G protein activation, Gi2", "setting": "GPR139 (Gi2 activation); log [compound] M -7.0", "value": "9 % of JNJ-63533054 at Gi2 and 1.06 % of JNJ-63533054 at Gi2 and 24 % of JNJ-63533054 at Gi2"}, {"measurement": "G protein activation, Gi2", "setting": "GPR139 (Gi2 activation); log [compound] M -7.5", "value": "6 % of JNJ-63533054 at Gi2 and -1.09 % of JNJ-63533054 at Gi2 and 22 % of JNJ-63533054 at Gi2"}, {"measurement": "G protein activation, Gi2", "setting": "GPR139 (Gi2 activation); log [compound] M -8.0", "value": "-2.65 % of JNJ-63533054 at Gi2 and -5 % of JNJ-63533054 at Gi2 and 18 % of JNJ-63533054 at Gi2"}, {"measurement": "Emax", "setting": "GPR139 (GoA activation); [1]", "value": "75 ± 3", "unit": "%"}, {"measurement": "EC50", "setting": "GPR139 (GoA activation); Supplementary Table 6", "value": 0.794, "unit": "µM"}, {"measurement": "G protein activation, GoA", "setting": "GPR139 (GoA activation); log [compound] M -4.5", "value": "74 % of JNJ-63533054 at Gi2 and 67 % of JNJ-63533054 at Gi2 and 78 % of JNJ-63533054 at Gi2"}, {"measurement": "G protein activation, GoA", "setting": "GPR139 (GoA activation); log [compound] M -5.0", "value": "69 % of JNJ-63533054 at Gi2 and 63 % of JNJ-63533054 at Gi2 and 75 % of JNJ-63533054 at Gi2"}, {"measurement": "G protein activation, GoA", "setting": "GPR139 (GoA activation); log [compound] M -5.5", "value": "62 % of JNJ-63533054 at Gi2 and 48 % of JNJ-63533054 at Gi2 and 61 % of JNJ-63533054 at Gi2"}, {"measurement": "G protein activation, GoA", "setting": "GPR139 (GoA activation); log [compound] M -6.0", "value": "47 % of JNJ-63533054 at Gi2 and 34 % of JNJ-63533054 at Gi2 and 45 % of JNJ-63533054 at Gi2"}, {"measurement": "G protein activation, GoA", "setting": "GPR139 (GoA activation); log [compound] M -6.5", "value": "19 % of JNJ-63533054 at Gi2 and 16 % of JNJ-63533054 at Gi2 and 26 % of JNJ-63533054 at Gi2"}, {"measurement": "G protein activation, GoA", "setting": "GPR139 (GoA activation); log [compound] M -7.0", "value": "7.39 % of JNJ-63533054 at Gi2 and 4 % of JNJ-63533054 at Gi2 and 10 % of JNJ-63533054 at Gi2"}, {"measurement": "G protein activation, GoA", "setting": "GPR139 (GoA activation); log [compound] M -7.5", "value": "0.895 % of JNJ-63533054 at Gi2 and 2 % of JNJ-63533054 at Gi2 and 3.63 % of JNJ-63533054 at Gi2"}, {"measurement": "G protein activation, GoA", "setting": "GPR139 (GoA activation); log [compound] M -8.0", "value": "-4.44 % of JNJ-63533054 at Gi2 and -2.19 % of JNJ-63533054 at Gi2 and 2.68 % of JNJ-63533054 at Gi2"}]}]}
